Experimental data published in patent US4349547A, “Suppressing obesity and over-secretion of insulin with 2-(α-hydroxy-m-trifluoromethylbenzyl)azetidine” (priority 1979, dated 1982).
Structures can show the parent of a compound that is named as a salt. Where two headings read alike, the source gives them in different places.

Experiments:
[1] = Anorectic effect in mice; format: in vivo, mouse (ICR); details: 50 mg/kg oral gavage, control = 100
Method: (a) Anorectic effect in mice
ICR mice, male and aged seven weeks (in groups of six individuals), which had been acclimatized to 6-hour/day feeding (CE-2 powder, commercial product of Clea Japan Ltd., Tokyo, Japan) for seven days were administered a dosage, by oral gavage, with a solution of 50 mg/kg of each test compound in 5% gum arabic at 0.5 hour before feeding on the eighth day, and the food intakes were compared with those of control mice given 5% gum arabic only. Each figure in the table is the percent food intake, with the corresponding figure for the control being 100.

[2] = Anorectic effect in rats; format: in vivo, rat (Sprague-Dawley); details: Rattus norvegicus, oral gavage, 50% inhibition of food intake
Method: (b) Anorectic effect in rats
Sprague-Dawley (SD) rats, male and aged seven weeks, fasted for 24 hours (in groups of six individuals) were dosed, by oral gavage, with a solution of each test compound in 5% gum arabic, and feeding (CE-2 powder) was started at 0.5 hour after administration. The dose (ED50) which caused a 50% inhibition of food intake as compared with the control dosed with 5% gum arabic was determined.

[3] = system: insulin secretion; assay: Suppression of insulin secretion (insulin area after glucose loading); format: in vivo, rat (Fatty rats); details: 50 mg/kg oral; glucose 3 g/kg after 30 minutes; blood at 30, 60 and 120 minutes; control 739
Method: (d) Suppression of insulin secretion
Fatty rats, female and aged 14 weeks, were used after fasting for 24 hours. The rats (in groups of five individuals) were orally dosed with a solution of 50 mg/kg of erythro-(I) hydrochloride in 5% gum arabic and, after 30 minutes, glucose (3 g/kg) was orally administered. At 30, 60 and 120 minutes after glucose loading, blood was withdrawn. The plasma samples were assayed for insulin and the insulin area was calculated.

[4] = Estimation of LD50 in mice; design: species or system mouse (ICR); details: mouse, in vivo; oral; kept for seven days; Probit analysis
Method: (e) Estimation of LD50 in mice
ICR mice, male and aged nine weeks, were used without fasting. The mice (in groups of six individuals) were orally dosed with a solution of erythro-(I) hydrochloride (333, 500 and 750 mg/kg) or erythro-(VIII) hydrochloride (750, 1100 and 1700 mg/kg) in 5% gum arabic and kept for seven days. LD50 was calculated using the Probit analysis.

[5] = system: biosynthesis of fatty acid; assay: Suppression of biosynthesis of fatty acid (incorporation of glucose-U-14C into liver and epididymal adipose tissue lipids); format: in vivo, rat (SD); details: Rattus norvegicus, 1 h, oral, 50% inhibition of glucose-U-14C incorporation, 60 minutes after glucose
Method: (c) Suppression of biosynthesis of fatty acid
Male SD rats fasted for 24 hours, were orally dosed with erythro-(I) hydrochloride and after a lapse of 30 minutes, glucose-U-^14 C (140 μCi/2 g/kg) was orally administered. The animals were sacrificed after 60 minutes and the amounts of incorporation of glucose-U-^14 C into the liver and the epididymal adipose tissue lipids were determined to calculate the dose (ED50) which caused a 50% inhibition of glucose-U-^14 C incorporation, as compared to control rats, which had fasted, had not been so dosed, and had been orally administered with glucose-U-^14 C (140μCi/2 g/kg).

[6] = Toxicity (general statement); details: in vivo
[7] = Antiobesity action (general statement); format: in vivo; details: compared with (VII)
[8] = in vivo
[9] = 0.5 hour, read-out: ED50 0.5 hour after administration
[10] = 1 hour, read-out: ED50 1 hour after administration
[11] = 2 hours, read-out: ED50 2 hours after administration

Compound	Food intake (%) 0.5 hour after administration [1]	Food intake (%) 1 hour after administration [1]	Food intake (%) 2 hours after administration [1]	ED50 [2, 9]	ED50 [2, 10]	ED50 [2, 11]	Insulin area [3]	LD50 at 168 h [4]	ED50 ([5]; epididymal adipose tissue lipids, read-out: Epididymal adipose tissue: ED50)	ED50 ([5]; liver lipids, read-out: Liver: ED50)	toxicity [6]	antiobesity action [7]	absorbability on oral administration [8]
O[C@@H](c1cccc(C(F)(F)F)c1)[C@H]1CCN1 (relative stereo) [Erythro-(I) hydrochloride, erythro-2-(α-hydroxy-m-trifluoromethylbenzyl)azetidine hydrochloride]	44.0%	50.6%	67.0%	20 mg/kg	20 mg/kg	25 mg/kg	51 μU/ml.hr	499 mg/kg	20 mg/kg	20 mg/kg	–	–	–
O[C@@H](c1ccccc1)[C@H]1CCN1 (relative stereo) [Erythro-(VII) hydrochloride, 2-(α-hydroxybenzyl)azetidine, reference compound]	–	–	–	35 mg/kg	50 mg/kg	300 mg/kg	–	902 mg/kg	–	–	–	–	–
O[C@@H](c1ccccc1)[C@@H]1CCN1 (relative stereo) [Threo-(VII) hydrochloride, 2-(α-hydroxybenzyl)azetidine, reference compound]	70.0%	89.3%	98.3%	–	–	–	–	–	–	–	–	–	–
O[C@@H](c1cccc(C(F)(F)F)c1)[C@@H]1CCN1 (relative stereo) [Threo-(I) hydrochloride, Threo-2-(α-hydroxy-m-trifluoromethylbenzyl)azetidine hydrochloride]	55.0%	72.0%	84.8%	–	–	–	–	–	–	–	–	–	–
OC(c1cccc(C(F)(F)F)c1)C1CCN1 (stereo not drawn) [Compound (I), 2-(α-hydroxy-m-trifluoromethylbenzyl)azetidine]	–	–	–	–	–	–	–	–	–	–	low toxicity	very potent and long lasting antiobesity action, surpassing the action of (VII)	good absorbability on oral administration
